# Data from ChEMBL document CHEMBL1134734, “Introduction of alkynyl chains on C-8 of adenosine led to very selective antagonists of the A(3) adenosine receptor” (Bioorg Med Chem Lett, 2001).
# Assays:
# Adenosine receptor A2b [1] = target: T1, Adenosine receptor A2b (Homo sapiens, UniProt P29275); experiment: Receptor stimulated adenylyl cyclase activity in CHO cells expressing human recombinant Adenosine A2B receptor; type: functional, cell-based
# T1 sequence (P29275 whole entry): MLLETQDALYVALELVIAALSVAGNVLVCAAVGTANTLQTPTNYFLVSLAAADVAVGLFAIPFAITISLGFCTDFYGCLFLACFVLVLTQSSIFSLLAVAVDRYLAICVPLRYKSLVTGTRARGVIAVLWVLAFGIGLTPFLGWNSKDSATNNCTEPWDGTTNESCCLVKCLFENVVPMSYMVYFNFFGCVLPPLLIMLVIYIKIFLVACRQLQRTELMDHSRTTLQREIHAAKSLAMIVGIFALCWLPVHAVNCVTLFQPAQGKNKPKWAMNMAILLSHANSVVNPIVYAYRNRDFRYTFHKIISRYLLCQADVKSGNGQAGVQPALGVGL
# Adenosine receptor A1 = target: T2, Adenosine receptor A1 (Homo sapiens, UniProt P30542); experiment: Displacement of [3H]-CCPA from CHO cells expressing human recombinant Adenosine A1 receptor; type: cell-based
# T2 sequence (P30542 whole entry): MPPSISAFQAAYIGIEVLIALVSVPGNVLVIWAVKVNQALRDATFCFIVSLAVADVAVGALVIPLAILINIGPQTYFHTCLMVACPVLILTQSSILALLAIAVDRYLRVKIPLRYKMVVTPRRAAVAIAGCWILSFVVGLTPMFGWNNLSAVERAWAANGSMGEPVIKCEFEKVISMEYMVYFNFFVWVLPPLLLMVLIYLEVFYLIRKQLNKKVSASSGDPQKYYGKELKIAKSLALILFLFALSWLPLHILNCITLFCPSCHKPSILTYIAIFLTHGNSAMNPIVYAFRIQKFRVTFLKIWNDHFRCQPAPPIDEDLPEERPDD
# Adenosine receptor A2a = Adenosine receptor A2a (Homo sapiens, UniProt P29274); experiment: [3H]NECA […] binding in CHO cells expressing human recombinant A2A adenosine receptor; type: cell-based
# Adenosine receptor A2a, sequence (P29274 whole entry): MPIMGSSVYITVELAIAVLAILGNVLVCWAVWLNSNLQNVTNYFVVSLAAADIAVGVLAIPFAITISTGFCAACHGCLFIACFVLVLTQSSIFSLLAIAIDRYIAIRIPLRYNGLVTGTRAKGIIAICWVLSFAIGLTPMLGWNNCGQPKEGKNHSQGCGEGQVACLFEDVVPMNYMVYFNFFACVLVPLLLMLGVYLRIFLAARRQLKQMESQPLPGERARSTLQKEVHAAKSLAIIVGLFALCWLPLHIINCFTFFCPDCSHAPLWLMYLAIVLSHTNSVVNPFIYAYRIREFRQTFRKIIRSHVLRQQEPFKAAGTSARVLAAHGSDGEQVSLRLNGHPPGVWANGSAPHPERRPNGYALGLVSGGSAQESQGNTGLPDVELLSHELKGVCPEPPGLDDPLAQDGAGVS
# [2] = target: T3, Adenosine receptor A3 (Homo sapiens) (UniProt P0DMS8); experiment: Stimulation of [35S]GTP gamma-S binding in CHO cell membranes expressing human A3 receptor at 78.8 uM; type: functional
# T3 sequence (whole entry): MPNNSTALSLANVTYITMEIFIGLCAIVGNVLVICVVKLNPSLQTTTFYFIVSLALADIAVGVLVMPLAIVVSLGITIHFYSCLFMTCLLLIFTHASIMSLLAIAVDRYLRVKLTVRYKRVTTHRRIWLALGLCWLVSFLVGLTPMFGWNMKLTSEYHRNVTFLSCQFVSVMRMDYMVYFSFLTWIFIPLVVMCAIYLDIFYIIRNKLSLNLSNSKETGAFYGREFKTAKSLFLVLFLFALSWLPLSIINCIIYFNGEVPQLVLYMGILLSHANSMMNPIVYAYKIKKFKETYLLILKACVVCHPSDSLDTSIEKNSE
# Adenosine receptor A3 = target: T4, Adenosine receptor A3 (Homo sapiens, UniProt P0DMS8); experiment: [3H]NECA […] binding in CHO cells expressing human Adenosine A3 receptor; type: cell-based
# T4 sequence (P0DMS8 whole entry): T3 sequence (whole entry)
# [3] = target: T3, Adenosine receptor A3 (Homo sapiens); conditions: CHO, 1 uM
# Description: Inhibition of [35S]GTP gamma-S binding to CHO cell membranes expressing human A3 receptor at 1 uM
# Adenosine receptor A2b [4] = target: T1, Adenosine receptor A2b; experiment: Antagonistic activity against Adenosine A2B receptor; type: functional
# [5] = target: T3, Adenosine receptor A3 (Homo sapiens); experiment: Stimulation of [35S]GTP gamma-S binding in CHO cell membranes expressing human A3 receptor at 983 uM; type: functional
SMILES,EC50 (Adenosine receptor A2b [1]) [µM],Ki (Adenosine receptor A1) [µM],Ki (Adenosine receptor A2a) [µM],Agonist effect [2] [%],Ki (Adenosine receptor A3) [µM],Agonist effect [3] [%],IC50 (Adenosine receptor A2b [4]) [µM],Agonist effect [5] [%]
"CCCCC#Cc1nc2c(N)ncnc2n1[C@@H]1O[C@H](CO)C(O)C1O (single isomer, unassigned)",> 100,> 100,> 100,–,–,–,–,–
"Nc1ncnc2c1nc(C#Cc1ccccc1)n2[C@@H]1O[C@H](CO)C(O)C1O (single isomer, unassigned)",> 100,> 100,> 100,0.2,0.79,–,–,–
CCNC(=O)[C@H]1O[C@@H](n2cnc3c(N)ncnc32)[C@H](O)[C@@H]1O,–,–,–,–,–,100,–,–
CCn1c(C#Cc2ccccc2)nc2c(N)ncnc21,–,–,0.6,–,0.086,–,≥ 100,–
Nc1ncnc2c1nc(/C=C/C(=O)c1ccccc1)n2[C@@H]1O[C@H](CO)[C@@H](O)[C@H]1O,> 100,> 100,46.6,–,9.83,–,–,1.9
